In brackets after ≈: the same amount, converted by molar mass.
Legend:
[1] = Increase in solubility of spironolactone in aqueous solution at pH 6.8, 25° C.; assay type: physicochemical; conditions: pH 6.8, aqueous buffer, without solubilizing agent
[2] = Method for measuring solubility of AP in aqueous solution containing solubilizing agent Cremophor RH 40 (37° C., 6 hours, filtration, HPLC); assay type: physicochemical
Experimental: The solution is stirred at 37° C. for 6 hours and then filtered through a filter with a 0.2 μm pore diameter. The content of solubilized AP is evaluated by HPLC chromatography or any other suitable analytical technique.
The ability of the solubilizing agent, made of Cremophor® RH 40, to solubilize an active principle, made up of spironolactone, is tested according to the following method for measuring solubility:
The AP is introduced into an aqueous solution containing the solubilizing agent. The solution is stirred at 37° C. for 6 hours and is then filtered through a filter with a 0.2 μm pore diameter. The content of solubilized AP is evaluated by HPLC.

## CC(=O)S[C@@H]1CC2=CC(=O)CC[C@]2(C)[C@H]2CC[C@@]3(C)[C@@H](CC[C@@]34CCC(=O)O4)[C@H]12 [spironolactone]
[1]
  solubility: ~38 µg/mL (≈ 91.2 µM)
[2]; Cremophor RH 40 0 % w/w at 37° C.
  (Spironolactone) dissolved in solution: <0.1 mg/mL
[2]; Cremophor RH 40 1 % w/w at 37° C.
  (Spironolactone) dissolved in solution: 0.1 mg/mL
[2]; Cremophor RH 40 2 % w/w at 37° C.
  (Spironolactone) dissolved in solution: 0.2 mg/mL
[2]; Cremophor RH 40 5 % w/w at 37° C.
  (Spironolactone) dissolved in solution: 0.4 mg/mL
[2]; Cremophor RH 40 10 % w/w at 37° C.
  (Spironolactone) dissolved in solution: 0.8 mg/mL
[2]; Cremophor RH 40 20 % w/w at 37° C.
  (Spironolactone) dissolved in solution: 1.4 mg/mL
